The text below walks through data of PMC8667898, “Topo II inhibition and DNA intercalation by new phthalazine-based derivatives as potent anticancer agents: design, synthesis, anti-proliferative, docking, and in vivo studies” (Journal of Enzyme Inhibition and Medicinal Chemistry, 2021).

Data set [1] can be described thus: Histopathological examination of liver tissues of SEC-bearing mice. Conditions: H&E stain, ×200. Type of data set: in vivo, Swiss albino mice. How it is done: The experimental animals were randomly divided into four groups. Group 1 served as the normal saline control (5 ml/kg B.Wt., I.P.). Group 2 served as the SEC control (1 × 10^6 cells/mouse). Group 3 served as the compound-treated group (5 mg/kg B.Wt., I.P.). […] Bodyweight and survival were recorded daily until the 24th day in both treated and control groups. At the end of the experiment, the blood of each group was collected under light anaesthesia to the estimate of hematological and biochemical assays. The anaesthetised animals were then sacrificed for evaluation of the antitumor activity and histopathological examination.
Specimens of liver-sacrificed mice were fixed in 10% saline formalin. The fixed liver specimens were dehydrated in ascending series of ethyl alcohol and embedded in paraffin. Sections at […] thicknesses were stained with haematoxylin and eosin and examined under the light microscope.

Data set [2] concerns HepG-2 cells (hepatocellular carcinoma). In words: MTT anti-proliferative assay, HepG-2. The data set is classed as cell-based, human. How it is done:
Anti-proliferative activities of the target compounds were assessed via the standard MTT method[38–40] against three cancer cell lines, namely, hepatocellular carcinoma (HepG-2), colorectal carcinoma (HCT-116), and human breast adenocarcinoma (MCF-7).
Anti-proliferative activity of the synthesised compounds was estimated using the MTT assay protocol[8]^,[38–40] as shown in Supplementary data.
4.2.1. In vitro anti-proliferative activity against MCF-7, HepG-2 and HCT-116 The cells were cultured in RPMI-1640 medium supplemented with 10% fetal bovine serum (FBS), penicillin (100 unit /mL) and streptomycin sulphate (100µg/mL) at 37 °C in a 5% CO2 incubator.
Then, cells were dropped in 96-well plates at a density of 3-8 × 10^3 cells/well and incubated for two days in a 5% CO2 incubator at 37 °C. Then, the cells were treated with the synthesized compounds and the cell cultures were continued incubated for 24 h. However, Different concentrations of the compound under test (0.0, 5.0, 12.5, 25.0 and 50 mg/ml) were added to the cell monolayer. Then, (3-[4,5-dimethylthiazol-2-yl]- 2,5-diphenyltetrazolium bromide) MTT solution (20 µl, 5mg/mL) was added to each well and incubated for additional 4 h. The formed purple crystals of MTT-formazan were dissolved in 100 µl DMSO each well; the absorbance of each well was measured at 570 nm using a plate reader (EXL 800, USA). All of the compounds were tested three times. The relative cell viability in percentage was calculated.
(§1) The data represented the mean of three independent experiments in triplicate and were expressed as means ± SD. […]

In data set [3] the target is T1, human Topo II (Homo sapiens, UniProt P11388).
T1 construct: purchased TopoGEN, Inc., Columbus
T1 sequence (P11388 whole entry): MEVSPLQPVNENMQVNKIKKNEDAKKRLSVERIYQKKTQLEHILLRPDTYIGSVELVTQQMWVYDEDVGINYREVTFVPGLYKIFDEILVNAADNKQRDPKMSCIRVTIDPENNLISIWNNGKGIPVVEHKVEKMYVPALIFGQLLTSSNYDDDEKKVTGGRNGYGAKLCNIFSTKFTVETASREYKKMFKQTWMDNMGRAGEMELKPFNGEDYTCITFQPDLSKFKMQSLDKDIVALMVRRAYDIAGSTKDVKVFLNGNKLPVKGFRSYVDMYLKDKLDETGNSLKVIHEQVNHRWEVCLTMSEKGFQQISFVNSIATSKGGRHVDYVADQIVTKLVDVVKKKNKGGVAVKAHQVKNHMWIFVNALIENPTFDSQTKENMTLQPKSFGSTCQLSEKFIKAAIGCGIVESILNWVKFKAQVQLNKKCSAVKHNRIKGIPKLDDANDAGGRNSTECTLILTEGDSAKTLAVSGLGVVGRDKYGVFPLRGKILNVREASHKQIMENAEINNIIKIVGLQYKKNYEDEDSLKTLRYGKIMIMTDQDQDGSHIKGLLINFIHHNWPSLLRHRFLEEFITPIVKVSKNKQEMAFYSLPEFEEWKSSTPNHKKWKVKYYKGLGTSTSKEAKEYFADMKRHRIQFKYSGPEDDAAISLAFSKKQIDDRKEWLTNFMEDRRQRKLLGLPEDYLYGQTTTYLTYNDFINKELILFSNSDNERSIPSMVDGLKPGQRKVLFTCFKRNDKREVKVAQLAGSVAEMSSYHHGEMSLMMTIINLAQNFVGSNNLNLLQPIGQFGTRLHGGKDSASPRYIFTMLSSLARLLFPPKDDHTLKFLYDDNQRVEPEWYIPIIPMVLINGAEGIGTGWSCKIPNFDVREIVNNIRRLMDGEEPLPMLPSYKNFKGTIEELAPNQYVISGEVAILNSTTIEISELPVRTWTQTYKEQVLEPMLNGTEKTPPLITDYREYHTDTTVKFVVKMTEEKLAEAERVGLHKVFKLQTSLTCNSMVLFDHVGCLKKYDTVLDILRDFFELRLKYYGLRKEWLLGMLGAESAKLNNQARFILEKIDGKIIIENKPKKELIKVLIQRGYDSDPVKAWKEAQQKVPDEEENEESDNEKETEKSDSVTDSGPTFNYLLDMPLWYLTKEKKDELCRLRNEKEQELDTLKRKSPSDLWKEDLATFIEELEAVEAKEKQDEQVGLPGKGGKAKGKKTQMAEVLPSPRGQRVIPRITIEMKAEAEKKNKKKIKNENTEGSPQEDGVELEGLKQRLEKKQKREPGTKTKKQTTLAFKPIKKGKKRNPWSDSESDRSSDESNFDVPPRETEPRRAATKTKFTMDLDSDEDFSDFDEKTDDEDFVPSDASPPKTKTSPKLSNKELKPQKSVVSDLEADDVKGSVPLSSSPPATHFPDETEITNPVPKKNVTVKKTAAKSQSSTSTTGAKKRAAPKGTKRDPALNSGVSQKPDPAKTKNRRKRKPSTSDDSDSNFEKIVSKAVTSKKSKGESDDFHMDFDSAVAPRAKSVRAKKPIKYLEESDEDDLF
In words: Topoisomerase II inhibitory activity (TopoGEN drug screening kit). Conditions: three independent experiments. The data set is classed as biochemical. How it is done: The activity of topoisomerase II was determined according to the reported procedure described by Patra et al.[42]. […]
4.2.3. Measurement of topoisomerase II activity
Compounds (8a, 8b, 9a, 9c, 9d, 12a, and 12b) were further evaluated to assess their Topo II inhibitory activities. In this test, Topo II drug screening kit (TopoGEN, Inc., Columbus) was utilized to determine the Topo II activity. […] A typical enzyme […]
reaction contained a mixture of human Topo II (2 µL), substrate super coiled pHot1 DNA (0.25 µg), 50 µg/mL test compound (2 µL), and assay buffer (4 µL). The reaction started upon incubation of the mixture in 37 °C for 30 min. The reaction was terminated by addition of 10% sodium dodecylsulphate (2 µL) and proteinase K (50 µg/mL) at 37 °C for 15 min. followed by incubation for 15 min at 37 °C.
Then, the DNA was run on 1% agarose gel in BioRad gel electrophoresis system for 1–2 h followed by staining with GelRedTM stain for 2 h and destained for 15 min with TAE buffer. The gel was imaged Via BioRad’s Gel DocTMEZ system. Both supercoiled and linear strands DNA were incorporated in the gel as markers for DNA-Topo II intercalators. The results of IC50 values were calculated using the GraphPad Prism version 5.0. Each reaction was performed in duplicate, and at least three independent determinations of each IC50 were made.

Data set [4] deals with Calf thymus DNA. As to the kind of experiment: DNA intercalation assay (DNA/methyl green colorimetric assay). Type of data set: binding. Conditions: three independent experiments. How it is done:
as §1
4.2.2. DNA intercalation assay (DNA/methyl green colorimetric assay)
Affinity of some compounds for DNA-binding was examined in vitro using DNA/methyl green assay using doxorubicin as a positive control. In this test, a mixture of methyl green (20 mg) and Calf thymus DNA (10 mg) (Sigma– Aldrich) were suspended in 0.05 M TrisHCl buffer (100 mL, pH 7.5) containing 7.5 mM MgSO4. This mixture was stirred continuously for 24 h at 37 °C. Then, ethanolic solution of the test compounds was pitted into the wells of a 96-well microtiter tray at a concentration of 10, 100 and 1000 µM. The excess solvent was removed from each well under vacuum, with subsequent addition of 200 µL of the DNA/methyl green solution. The test samples were incubated for 24 h in dark at ambient temperature. After that, absorbance of each sample was determined at 642.5–645 nm. In this test, the methyl green dye reversibly binds to DNA to form persistent colored complex of DNA/methyl green. This color still stables at neutral pH. When the DNA intercalators were added, the methyl green was displaced from DNA with addition of H2O molecule to the dye resulting in formation of the colorless carbinol leading to a decrease in spectrophotometric absorbance. ΔA value (the difference between DNA/methyl green complex and free cabinol) provides the simplest means for detecting the DNA-binding affinity and relative binding strength. IC50′s were determined by linear regression of data plotted on a semi -log scale and the data were compared with doxorubicin as standard DNA intercalator . […]

Turning to `CCCc1nnc2c3ccccc3c(NN=Cc3ccc([N+](=O)[O-])cc3)nn12` [Compound 9d, 6-[2–(4-Nitrobenzylidene)hydrazineyl]-3-propyl-[1,2, 4]triazolo[3,4-a]phthalazine], the “Histopathological finding in liver tissue” value in data set [1] is “hepatic cells are near normal and show tissue improvement as compared with a little hydropic degeneration”. In addition, the IC50 in data set [2] (Homo sapiens, HepG2, MTT, mean ± SD of three separate experiments, read-out: In vitro Cytotoxicity IC50 HepG-2) stood at 5.08 ± 0.17 µM; in data set [3] it was 7.02 ± 0.54 µM; in data set [4], 26.2 ± 1.14 µM. Further, the “times more active than doxorubicin, HepG2” value in data set [2] (ratio of IC50 values vs doxorubicin) was 1.63 times.
